Consider 12 compounds from PubChem BioAssay (NCI).

Test systems include A498 renal; A549 NSCLC; HCC-2998 colon; HCT-116 colon; HL-60(TB) leukemia; HT29 colon; IGROV1 ovarian; LOX IMVI melanoma; MALME-3M melanoma; MCF7 breast; MOLT-4 leukemia; OVCAR-3 ovarian; OVCAR-5 ovarian; OVCAR-8 ovarian; SF-539 CNS; SK-MEL-5 melanoma; SK-OV-3 ovarian; SNB-75 CNS; U251 CNS.
Common to all, as to experiment: NCI anticancer screen, dose series, 48 h

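Growth conditions: 96-well plates. Treatment: test compound, 48 hours, 5 concentrations. Analysis: linear interpolation between bracketing concentrations; unreached endpoints set to highest concentration. TGI: concentration producing complete growth inhibition.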

On to `O=[N+]([O-])c1ccccc1S(=O)(=O)c1cccc2c1NCCC2`, for which the TGI with A498 renal, in the test on A549 NSCLC, with HCC-2998 colon, in the test with HCT-116 colon, in the test with HL-60(TB) leukemia and in the test on HT29 colon was more than 100 µM in each case. For the same compound, the TGI in the test with IGROV1 ovarian, in the test with LOX IMVI melanoma, in the test on MALME-3M melanoma, in the test on MCF7 breast, in the test with MOLT-4 leukemia and in the test with OVCAR-3 ovarian was more than 100 µM throughout. For the same compound, the TGI was more than 100 µM in the test with OVCAR-5 ovarian; more than 100 µM with OVCAR-8 ovarian; more than 100 µM in the test on SF-539 CNS; 52.3 µM in the test with SK-MEL-5 melanoma; more than 100 µM in the test on SK-OV-3 ovarian; more than 100 µM with SNB-75 CNS.

Regarding `COC(=O)CSc1cc(Cl)c(C)cc1S(=O)(=O)Nc1n[nH]c(N)n1`, the TGI in the test with A498 renal, in the test on A549 NSCLC, with HCC-2998 colon, in the test on HCT-116 colon, with HL-60(TB) leukemia and in the test on HT29 colon was more than 10 µM each time. Moreover, the TGI with IGROV1 ovarian, in the test with LOX IMVI melanoma, with MALME-3M melanoma, in the test on MCF7 breast, in the test with MOLT-4 leukemia and in the test on OVCAR-3 ovarian was more than 10 µM throughout. Also, the TGI in the test on OVCAR-5 ovarian, in the test with OVCAR-8 ovarian, in the test on SF-539 CNS, in the test with SK-MEL-5 melanoma, with SK-OV-3 ovarian and in the test on SNB-75 CNS was more than 10 µM in each case. Moreover, the TGI in the test on U251 CNS was more than 10 µM.

For the compound `CC(/C=C/c1ccccc1)=N\NC(=S)N/N=C(C)/C=C/c1ccccc1`, the TGI with A498 renal is 7.51 µM; in the test on A549 NSCLC, more than 100 µM; in the test on HCC-2998 colon it was more than 100 µM; with HCT-116 colon it was more than 100 µM; with HL-60(TB) leukemia, more than 100 µM; in the test on HT29 colon, more than 100 µM. The TGI with IGROV1 ovarian is more than 100 µM; with LOX IMVI melanoma, 28.8 µM; in the test on MALME-3M melanoma it was more than 100 µM; with MCF7 breast, more than 100 µM; in the test on MOLT-4 leukemia, more than 100 µM; in the test with OVCAR-3 ovarian, 66.5 µM. In addition, the TGI was more than 100 µM with OVCAR-5 ovarian; 64.5 µM in the test with OVCAR-8 ovarian; 47.2 µM in the test with SF-539 CNS; 42.8 µM with SK-MEL-5 melanoma; more than 100 µM in the test with SK-OV-3 ovarian; 48.7 µM in the test with SNB-75 CNS. For the same compound, the TGI in the test with U251 CNS came to 16.2 µM.

In the case of `O=C(NCCc1ccccn1)c1ccc2cc(C(=O)N3CC(CCl)c4ccc([N+](=O)[O-])cc43)[nH]c2c1` (stereo unspecified), the TGI in the test on A498 renal, with A549 NSCLC, in the test on HCC-2998 colon, with HCT-116 colon, in the test on HL-60(TB) leukemia and in the test on HT29 colon was more than 100 µM each time. In addition, the TGI is more than 100 µM with IGROV1 ovarian; more than 100 µM in the test with LOX IMVI melanoma; more than 100 µM in the test with MALME-3M melanoma; more than 100 µM in the test with MCF7 breast; more than 100 µM in the test with MOLT-4 leukemia; 28.2 µM in the test with OVCAR-3 ovarian. Further, the TGI is more than 100 µM in the test with OVCAR-5 ovarian; more than 86.9 µM in the test with OVCAR-8 ovarian; more than 100 µM in the test on SF-539 CNS; more than 100 µM with SK-MEL-5 melanoma; 46 µM in the test on SK-OV-3 ovarian; more than 100 µM with SNB-75 CNS. In the test with U251 CNS, the TGI is more than 100 µM.

As for `O=C(O)CCC1C(=O)C2CCN1CC2` (stereo unspecified), the TGI in the test on A498 renal, with A549 NSCLC, in the test on HCC-2998 colon, with HCT-116 colon, in the test with HL-60(TB) leukemia and with HT29 colon was more than 100 µM throughout. Also, the TGI in the test on IGROV1 ovarian, in the test with LOX IMVI melanoma, in the test with MALME-3M melanoma, in the test with MCF7 breast, in the test with MOLT-4 leukemia and in the test on OVCAR-3 ovarian was more than 100 µM throughout. Besides, the TGI in the test on OVCAR-5 ovarian, in the test on OVCAR-8 ovarian, with SF-539 CNS, in the test on SK-MEL-5 melanoma, in the test with SK-OV-3 ovarian and in the test on SNB-75 CNS was more than 100 µM in each case. The compound further showed a TGI with U251 CNS of more than 100 µM.

In the case of `COC(=O)C1=C(C)NC(CF)=C(C(=O)OC)C1c1cccc2c(=O)c3ccccc3oc12` (stereo unspecified), the TGI in the test with A498 renal is 94.5 µM; in the test with A549 NSCLC it was more than 100 µM; in the test on HCC-2998 colon, more than 100 µM; in the test on HCT-116 colon, more than 100 µM; in the test on HL-60(TB) leukemia it was more than 100 µM; in the test on HT29 colon it was more than 100 µM. Besides, the TGI in the test on IGROV1 ovarian was 18.9 µM; in the test on LOX IMVI melanoma, more than 100 µM; with MALME-3M melanoma, 83.6 µM; with MCF7 breast it was more than 100 µM; in the test with MOLT-4 leukemia it was more than 100 µM; with OVCAR-3 ovarian it was 66.8 µM. Moreover, the TGI in the test on OVCAR-5 ovarian, in the test with OVCAR-8 ovarian, in the test on SF-539 CNS, in the test with SK-MEL-5 melanoma, with SK-OV-3 ovarian and in the test with SNB-75 CNS was more than 100 µM in each case.

Regarding `COC(=O)c1ccccc1C1CN=NC12Cc1cc3c(cc1C2=O)CCC3` (stereo unspecified), the TGI with A498 renal was more than 100 µM; in the test on A549 NSCLC it was more than 100 µM; in the test on HCC-2998 colon, more than 100 µM; in the test with HCT-116 colon, more than 100 µM; with HL-60(TB) leukemia, 61.5 µM; with HT29 colon, more than 100 µM. Also, the TGI in the test with IGROV1 ovarian, with LOX IMVI melanoma, with MALME-3M melanoma, in the test with MCF7 breast, with MOLT-4 leukemia and with OVCAR-3 ovarian was more than 100 µM throughout. The TGI is more than 100 µM in the test on OVCAR-5 ovarian; more than 100 µM with OVCAR-8 ovarian; more than 100 µM in the test with SF-539 CNS; 48.7 µM in the test with SK-MEL-5 melanoma; more than 100 µM with SK-OV-3 ovarian; more than 100 µM with SNB-75 CNS. Also, the TGI in the test on U251 CNS is more than 100 µM.

For the compound `CN(C)/C=N/c1cc(=O)n(C)c(=O)n1C`, the TGI in the test with A498 renal, with A549 NSCLC, in the test with HCC-2998 colon, in the test with HCT-116 colon, in the test on HL-60(TB) leukemia and in the test with HT29 colon was more than 100 µM in each case. For the same compound, the TGI in the test on IGROV1 ovarian, in the test with LOX IMVI melanoma, in the test with MALME-3M melanoma, with MCF7 breast, with MOLT-4 leukemia and with OVCAR-3 ovarian was more than 100 µM in each case. For the same compound, the TGI in the test on OVCAR-5 ovarian, in the test with OVCAR-8 ovarian, in the test on SF-539 CNS, with SK-MEL-5 melanoma, in the test on SK-OV-3 ovarian and with SNB-75 CNS was more than 100 µM in each case. In the test on U251 CNS, the TGI was more than 100 µM.

For the compound `C=C(Cl)[C@](Cl)(CBr)CC[C@@H](Br)C(C)(C)Cl`, the TGI in the test on A498 renal worked out at 3.41 µM; with A549 NSCLC it was 5.49 µM; in the test on HCC-2998 colon, 2.93 µM; with HCT-116 colon, 1.38 µM; in the test with HL-60(TB) leukemia, 2.06 µM; in the test with HT29 colon, 2.06 µM. For the same compound, the TGI in the test with IGROV1 ovarian came out at 21.2 µM; in the test with LOX IMVI melanoma, 32.1 µM; in the test with MALME-3M melanoma, 24.2 µM; with MCF7 breast it was 2.18 µM; with MOLT-4 leukemia, 31.9 µM; with OVCAR-3 ovarian it was 1.58 µM. The TGI was 2.98 µM in the test with OVCAR-5 ovarian; 2.86 µM with OVCAR-8 ovarian; 1.28 µM with SF-539 CNS; 24.9 µM in the test on SK-MEL-5 melanoma; 25.3 µM with SK-OV-3 ovarian; 2.09 µM with SNB-75 CNS. The compound also gave a TGI with U251 CNS of 0.335 µM.

Turning to `O=C1NC(=Nc2ccccc2Cl)N/C1=C\c1c(Cl)cccc1Cl`, the TGI is more than 100 µM in the test with A498 renal; more than 100 µM in the test with A549 NSCLC; 55.3 µM in the test with HCC-2998 colon; 67.1 µM with HCT-116 colon; 54.2 µM with HL-60(TB) leukemia; more than 100 µM with HT29 colon. The TGI with IGROV1 ovarian, in the test with LOX IMVI melanoma, in the test with MALME-3M melanoma, with MCF7 breast, in the test with MOLT-4 leukemia and in the test with OVCAR-3 ovarian was more than 100 µM throughout. The TGI in the test on OVCAR-5 ovarian is 83.7 µM; with OVCAR-8 ovarian it was more than 100 µM; in the test on SF-539 CNS it was more than 100 µM; in the test with SK-MEL-5 melanoma, 47.2 µM; in the test with SK-OV-3 ovarian, more than 100 µM; with SNB-75 CNS it was 76.3 µM. The same compound came in with a TGI with U251 CNS of more than 100 µM.

With `COC(=O)c1cc(C#N)[nH]c1-c1ccc(Br)s1`, the TGI with A498 renal was found to be 9.9 µM; in the test on A549 NSCLC it was 23 µM; in the test with HCC-2998 colon it was 31.8 µM; with HCT-116 colon, 26.3 µM; in the test on HL-60(TB) leukemia, 36.5 µM; with HT29 colon, 24.8 µM. For the same compound, the TGI in the test on IGROV1 ovarian was determined as 20.9 µM; in the test on LOX IMVI melanoma, 23.1 µM; with MALME-3M melanoma it was 19.7 µM; in the test with MCF7 breast it was 18.6 µM; in the test on MOLT-4 leukemia, 64.9 µM; with OVCAR-3 ovarian, 15.9 µM. Also, the TGI with OVCAR-5 ovarian is 24.1 µM; with OVCAR-8 ovarian, 27.1 µM; with SF-539 CNS, 27.2 µM; in the test on SK-MEL-5 melanoma, 15.3 µM; in the test on SK-OV-3 ovarian it was 24.7 µM; with SNB-75 CNS, 24.9 µM. Besides, the TGI with U251 CNS came to 24.8 µM.

Take `CC(=O)OC1CCn2c1nc1c2C(=O)C=C(N2CC2)C1=O` (stereo unspecified): the TGI with A498 renal is 0.613 µM; in the test with A549 NSCLC, 6.25 µM; in the test with HCC-2998 colon, 3.07 µM; in the test on HCT-116 colon it was 0.781 µM; in the test on HL-60(TB) leukemia it was 0.494 µM; in the test on HT29 colon it was 2.08 µM. The TGI came to 1.88 µM with IGROV1 ovarian; 0.275 µM in the test on LOX IMVI melanoma; 0.0872 µM in the test with MALME-3M melanoma; 0.957 µM in the test on MCF7 breast; 0.208 µM with MOLT-4 leukemia; 0.546 µM in the test on OVCAR-3 ovarian. Moreover, the TGI in the test on OVCAR-5 ovarian amounted to 2.61 µM; in the test with OVCAR-8 ovarian, 1.57 µM; in the test with SF-539 CNS, 0.696 µM; in the test with SK-MEL-5 melanoma it was 0.305 µM; in the test on SK-OV-3 ovarian, 6.15 µM; in the test on SNB-75 CNS, 0.479 µM. In the test on U251 CNS, this compound yielded a TGI of 0.853 µM.
